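Grown in 96-well plates, cells were treated for 48 hours with each compound at five concentrations. Insufficient inhibition: endpoint recorded as highest concentration tested. At the TGI there is no net growth.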
Legend:
Assay in all cases: NCI tumour cell line growth inhibition, 48 h
[1] = tested on: HOP-62 NSCLC
[2] = tested on: OVCAR-4 ovarian
[3] = tested on: RPMI-8226 leukemia
[4] = tested on: SF-268 CNS
[5] = tested on: SF-539 CNS
[6] = tested on: SK-OV-3 ovarian
[7] = tested on: UACC-62 melanoma
[8] = tested on: HL-60(TB) leukemia
[9] = tested on: KM12 colon
[10] = tested on: NCI-H460 lung

Row | SMILES | TGI [1] | TGI [2] | TGI [3] | TGI [4] | TGI [5] | TGI [6] | TGI [7] | TGI [8] | TGI [9] | TGI [10]
1 | O=C(/C=C/c1ccc(O)c(O)c1)c1cc(O)cc(O)c1 | 36.6 µM | 22.2 µM | > 100 µM | 42.8 µM | 20.7 µM | 42.9 µM | 26.1 µM | – | – | –
2 | O=c1oc2cc(O)ccc2c(O)c1C(c1cccnc1)c1c(O)c2ccc(O)cc2oc1=O | > 100 µM | – | > 100 µM | > 100 µM | > 100 µM | > 100 µM | > 100 µM | > 100 µM | > 100 µM | > 100 µM
3 | CN(C)c1ccccc1CN1CCCN(Cc2ccccc2N(C)C)C1c1ccncc1 | 30.3 µM | 33 µM | 32.1 µM | 37.9 µM | 36 µM | 32.9 µM | 27.6 µM | 32.4 µM | 41.7 µM | 28.5 µM
4 | CCOC(=O)NC(NC1=NCCS1)(C(=O)OCC)C(F)(F)F (configuration not stated) | > 100 µM | > 100 µM | > 100 µM | > 100 µM | > 100 µM | > 100 µM | – | > 100 µM | > 100 µM | > 100 µM
5 | COC1(OC)CC(CO)(CNc2cc(Cl)nc(N)n2)C1 | > 100 µM | > 100 µM | > 100 µM | > 100 µM | > 100 µM | > 100 µM | > 100 µM | > 100 µM | > 100 µM | > 100 µM
6 | CCSc1cc(=O)n(C)c(=O)n1C | > 100 µM | > 100 µM | > 100 µM | > 100 µM | > 100 µM | > 100 µM | > 100 µM | > 100 µM | > 100 µM | > 100 µM
7 | C/C(=C/C(=O)Nn1c(Cc2ccccc2)n[nH]c1=O)C(=O)O | > 100 µM | > 100 µM | > 100 µM | > 100 µM | > 100 µM | > 100 µM | > 100 µM | > 100 µM | > 100 µM | > 100 µM
8 | Cn1c2ccccc2c2c(=O)[nH]c(=O)[nH]c21 | > 100 µM | – | > 100 µM | > 100 µM | > 100 µM | > 100 µM | > 100 µM | > 100 µM | > 100 µM | –
9 | O=C(O)c1cnc2[nH]ccn2c1=O | > 100 µM | > 100 µM | > 100 µM | > 100 µM | – | > 100 µM | > 100 µM | > 100 µM | – | > 100 µM
10 | CCOc1ccc(/C=N/[N+](C)(C)C)cc1OCC | > 10 µM | > 10 µM | > 10 µM | > 10 µM | > 10 µM | > 10 µM | > 10 µM | – | > 10 µM | –
11 | CSCCCNC(=O)c1csc(-c2csc(C(CNC(=O)OC(C)(C)C)CNC(=O)OC(C)(C)C)n2)n1 | > 100 µM | > 100 µM | 41.7 µM | > 100 µM | > 100 µM | > 100 µM | 40.4 µM | – | > 100 µM | > 100 µM
12 | Cc1cccnc1/N=C/c1c(O)n(C)c(=O)[nH]c1=O | > 100 µM | > 100 µM | – | > 100 µM | > 100 µM | > 100 µM | > 100 µM | > 100 µM | > 100 µM | > 100 µM
13 | COc1ccc2sc(-n3nc4ccccc4c3Nc3nc4ccc(OC)cc4s3)nc2c1 | 4.43 µM | 6.82 µM | 7.12 µM | 32.5 µM | 4.5 µM | 7.47 µM | 10.8 µM | – | 25.5 µM | > 38.9 µM
14 | CCN1CCN(c2nc3ccc([N+](=O)[O-])cc3nc2C(=O)c2ccccc2)CC1 | 35.6 µM | – | 30.9 µM | 38 µM | 29.7 µM | 41.7 µM | 31.2 µM | 61.9 µM | 31.8 µM | 51.4 µM
15 | COC(=O)/C=C/c1ccc2c(c1)CC1(C2)Cc2cc3c(cc2C1=O)CCC3 (configuration not stated) | – | > 100 µM | > 100 µM | > 100 µM | > 100 µM | – | > 100 µM | > 100 µM | > 100 µM | > 100 µM
16 | O=C(/C=C/c1ccc(/C=C/C(=O)c2ccc(O)cc2)cc1)c1ccc(O)cc1 | > 100 µM | – | > 100 µM | > 100 µM | > 100 µM | – | > 100 µM | > 100 µM | > 100 µM | > 100 µM
17 | O=C1CCC(=O)N1n1c(Cc2ccc(Cl)cc2)n[nH]c1=O | – | > 100 µM | > 100 µM | > 100 µM | > 100 µM | > 100 µM | > 100 µM | > 100 µM | > 100 µM | > 100 µM
18 | Cc1ccc(OC2CC(n3cnc4ncnc(Cl)c43)OC2Oc2ccc(C)cc2)cc1 (configuration not stated) | 90.2 µM | > 100 µM | – | 50.1 µM | 31.5 µM | > 100 µM | 96.7 µM | > 100 µM | 74.4 µM | > 100 µM
19 | Cc1cc(NC[C@H](O)[C@H](O)[C@H](O)CO)c(Sc2cc(=O)[nH]c(=O)[nH]2)cc1C | > 62.5 µM | > 62.5 µM | > 62.5 µM | > 62.5 µM | – | > 62.5 µM | > 62.5 µM | – | > 62.5 µM | > 62.5 µM
20 | N#CCCC1(CCC#N)CCCCCCCCC(CCC#N)(CCC#N)C(=O)C1=O | > 100 µM | > 100 µM | – | > 100 µM | > 100 µM | > 100 µM | > 100 µM | > 100 µM | > 100 µM | > 100 µM
21 | O=C1[C@@H]2[C@@H](c3ccccc3)[C@]2(Cl)C(=O)[C@H]2[C@H](c3ccccc3)[C@@]12Cl | > 100 µM | > 100 µM | – | > 100 µM | > 100 µM | > 100 µM | > 100 µM | > 100 µM | > 100 µM | > 100 µM
22 | CCCCCCCCCCCCOP(=O)(O)OCC(N)C(=O)O (configuration not stated) | 31.6 µM | > 100 µM | 68.5 µM | > 100 µM | 51.6 µM | 50.1 µM | – | 36.8 µM | – | 43.2 µM
23 | O=C1/C(=C/c2cccc(Br)c2)CSC/C1=C\c1cccc(Br)c1 | 6.74 µM | 13.1 µM | 6.42 µM | 24.2 µM | 13.6 µM | 42 µM | 3.14 µM | – | 4.43 µM | 7.26 µM

From PubChem BioAssay (NCI)
